pKi: −log10 of the molar value. Like-named read-outs stand apart in the source and are kept apart here.
Legend:
[1] = molecular target: T1, α1B Human Adrenergic Receptor (Homo sapiens, UniProt P35368); assay: Radioligand binding, [3H]prazosin, cloned human α1B adrenergic receptor
T1 construct: The entire coding region of α1B (1563 bp); expressed in transfected cells
T1 sequence (P35368 1-520): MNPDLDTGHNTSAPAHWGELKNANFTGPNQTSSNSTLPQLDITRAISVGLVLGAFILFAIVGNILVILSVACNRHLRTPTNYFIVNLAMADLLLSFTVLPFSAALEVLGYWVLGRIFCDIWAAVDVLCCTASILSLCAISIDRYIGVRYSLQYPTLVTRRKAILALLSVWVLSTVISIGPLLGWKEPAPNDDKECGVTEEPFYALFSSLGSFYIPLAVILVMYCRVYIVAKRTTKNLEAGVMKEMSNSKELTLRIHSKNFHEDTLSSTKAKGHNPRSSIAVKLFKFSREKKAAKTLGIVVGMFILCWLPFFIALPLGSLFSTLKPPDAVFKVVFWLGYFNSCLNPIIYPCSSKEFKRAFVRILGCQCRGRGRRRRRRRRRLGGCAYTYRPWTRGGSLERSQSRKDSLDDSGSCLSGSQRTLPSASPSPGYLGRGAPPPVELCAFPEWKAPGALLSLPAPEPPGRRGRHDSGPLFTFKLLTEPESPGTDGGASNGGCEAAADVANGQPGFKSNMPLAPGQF
Outline: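 Membranes from stably transfected LM(tk−) cells, resuspended in 50 mM Tris-HCl, 1 mM MgCl2, 0.1% ascorbic acid, pH 7.5, were incubated with 0.5 nM [3H]prazosin for 20 min at 37° C. Nonspecific binding defined with 10 μM phentolamine; bound ligand separated by GF/B filtration.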

L-type calcium channel = molecular target: T2, L-type calcium channel (Rattus norvegicus, UniProt P22002); assay: Competition binding of [3H]nitrendipine to membrane fragments of rat cardiac muscle; conditions: for Ki: [3H]nitrendipine
T2 construct: membrane fragments of rat cardiac muscle; from tissue; host or cells: rat cardiac muscle membranes
Procedure: The protocols for these experiments are given below.
Determination of the Activity of al Antagonists at Calcium Channels
Briefly, the tissue was minced and homogenized in 50 mM Tris-HCl (pH 7.4) containing 0.1 mM phenylmethylsulfonyl fluoride. The homogenates were centrifuged at 1000 g for 15 minutes, the resulting supernatant was centrifuged at 45,000 g for 15 minutes. The 45,000 g pellet was suspended in buffer and centrifuged a second time. Aliquots of membrane protein were incubated for 30 minutes at 37° C. in the presence of [3H]nitrendipine (1 nM), and nonspecific binding was determined in the presence of 10 μM nifedipine. The bound radioligand was separated by filtration through GF/B filters using a cell harvester.

[2] = molecular target: T3, α1A Human Adrenergic Receptor (Homo sapiens, UniProt P25100); assay: Radioligand binding, [3H]prazosin, cloned human α1A adrenergic receptor
T3 construct: The entire coding region of α1A (1719 bp); expressed in transfected cells
T3 sequence (P25100 1-572): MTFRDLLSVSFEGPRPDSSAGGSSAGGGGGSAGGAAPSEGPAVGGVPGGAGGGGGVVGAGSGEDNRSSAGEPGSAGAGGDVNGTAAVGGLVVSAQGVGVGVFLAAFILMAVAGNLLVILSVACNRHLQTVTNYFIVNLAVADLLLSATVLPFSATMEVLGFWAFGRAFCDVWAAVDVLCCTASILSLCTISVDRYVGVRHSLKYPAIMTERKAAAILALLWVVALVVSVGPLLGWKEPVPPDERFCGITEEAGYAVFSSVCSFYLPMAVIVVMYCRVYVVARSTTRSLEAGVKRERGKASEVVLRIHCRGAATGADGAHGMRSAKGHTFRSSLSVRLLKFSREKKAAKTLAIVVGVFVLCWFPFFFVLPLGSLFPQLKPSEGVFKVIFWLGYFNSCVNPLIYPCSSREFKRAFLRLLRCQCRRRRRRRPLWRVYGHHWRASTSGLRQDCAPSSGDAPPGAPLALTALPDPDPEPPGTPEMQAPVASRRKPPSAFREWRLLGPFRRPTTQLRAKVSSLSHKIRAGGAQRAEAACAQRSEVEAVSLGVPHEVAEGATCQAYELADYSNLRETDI
Outline: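 Membranes from LM(tk−) cells transfected with human α1A were incubated with 0.5 nM [3H]prazosin in 50 mM Tris-HCl, 1 mM MgCl2, 0.1% ascorbic acid, pH 7.5, for 20 min at 37° C. Nonspecific binding was defined with 10 μM phentolamine. Bound ligand was separated by GF/B filtration.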

[3] = molecular target: T4, α1C Human Adrenergic Receptor (Homo sapiens, UniProt P35348); assay: Radioligand binding, [3H]prazosin, cloned human α1C adrenergic receptor
T4 construct: The entire coding region of α1C (1401 bp); expressed in transfected cells
T4 sequence (P35348 1-466): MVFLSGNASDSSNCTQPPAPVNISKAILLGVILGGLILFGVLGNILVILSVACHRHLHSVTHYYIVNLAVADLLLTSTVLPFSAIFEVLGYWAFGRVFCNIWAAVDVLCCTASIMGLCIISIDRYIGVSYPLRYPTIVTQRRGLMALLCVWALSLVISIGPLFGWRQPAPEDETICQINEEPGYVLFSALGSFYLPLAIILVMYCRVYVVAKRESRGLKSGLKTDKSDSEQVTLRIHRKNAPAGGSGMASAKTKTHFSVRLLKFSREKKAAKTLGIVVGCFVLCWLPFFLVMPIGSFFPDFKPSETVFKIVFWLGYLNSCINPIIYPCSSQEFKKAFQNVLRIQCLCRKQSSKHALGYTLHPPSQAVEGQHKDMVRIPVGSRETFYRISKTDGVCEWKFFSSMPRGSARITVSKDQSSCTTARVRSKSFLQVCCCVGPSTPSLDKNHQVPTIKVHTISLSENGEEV
Outline: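 Membranes from LM(tk−) cells stably expressing the cloned human α1C receptor were incubated with 0.5 nM [3H]prazosin at 37° C. for 20 min in 50 mM Tris-HCl, 1 mM MgCl2, 0.1% ascorbic acid, pH 7.5. Nonspecific binding was defined with 10 μM phentolamine, and bound ligand was separated by GF/B filtration.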

[4] = cloned human receptor, LM(tk-) cell membranes, mean, read-out: PKi alpha-1 1b (converted)
[5] = rat cardiac muscle membranes, mean, read-out: PKi Ca (converted)
[6] = [3H]prazosin, cloned human receptor, LM(tk-) cell membranes, mean, read-out: PKi alpha-1 1a (converted)
[7] = cloned human receptor, LM(tk-) cell membranes, mean, read-out: PKi alpha-1 1c (converted)
[8] = PKi alpha-1 1b, cloned human receptor, LM(tk-) cell membranes, mean
[9] = PKi alpha-1 1a, [3H]prazosin, cloned human receptor, LM(tk-) cell membranes, mean
[10] = PKi alpha-1 1c, cloned human receptor, LM(tk-) cell membranes, mean

T2 sequence (P22002 whole entry, other chains not shown, the tested form may be a part): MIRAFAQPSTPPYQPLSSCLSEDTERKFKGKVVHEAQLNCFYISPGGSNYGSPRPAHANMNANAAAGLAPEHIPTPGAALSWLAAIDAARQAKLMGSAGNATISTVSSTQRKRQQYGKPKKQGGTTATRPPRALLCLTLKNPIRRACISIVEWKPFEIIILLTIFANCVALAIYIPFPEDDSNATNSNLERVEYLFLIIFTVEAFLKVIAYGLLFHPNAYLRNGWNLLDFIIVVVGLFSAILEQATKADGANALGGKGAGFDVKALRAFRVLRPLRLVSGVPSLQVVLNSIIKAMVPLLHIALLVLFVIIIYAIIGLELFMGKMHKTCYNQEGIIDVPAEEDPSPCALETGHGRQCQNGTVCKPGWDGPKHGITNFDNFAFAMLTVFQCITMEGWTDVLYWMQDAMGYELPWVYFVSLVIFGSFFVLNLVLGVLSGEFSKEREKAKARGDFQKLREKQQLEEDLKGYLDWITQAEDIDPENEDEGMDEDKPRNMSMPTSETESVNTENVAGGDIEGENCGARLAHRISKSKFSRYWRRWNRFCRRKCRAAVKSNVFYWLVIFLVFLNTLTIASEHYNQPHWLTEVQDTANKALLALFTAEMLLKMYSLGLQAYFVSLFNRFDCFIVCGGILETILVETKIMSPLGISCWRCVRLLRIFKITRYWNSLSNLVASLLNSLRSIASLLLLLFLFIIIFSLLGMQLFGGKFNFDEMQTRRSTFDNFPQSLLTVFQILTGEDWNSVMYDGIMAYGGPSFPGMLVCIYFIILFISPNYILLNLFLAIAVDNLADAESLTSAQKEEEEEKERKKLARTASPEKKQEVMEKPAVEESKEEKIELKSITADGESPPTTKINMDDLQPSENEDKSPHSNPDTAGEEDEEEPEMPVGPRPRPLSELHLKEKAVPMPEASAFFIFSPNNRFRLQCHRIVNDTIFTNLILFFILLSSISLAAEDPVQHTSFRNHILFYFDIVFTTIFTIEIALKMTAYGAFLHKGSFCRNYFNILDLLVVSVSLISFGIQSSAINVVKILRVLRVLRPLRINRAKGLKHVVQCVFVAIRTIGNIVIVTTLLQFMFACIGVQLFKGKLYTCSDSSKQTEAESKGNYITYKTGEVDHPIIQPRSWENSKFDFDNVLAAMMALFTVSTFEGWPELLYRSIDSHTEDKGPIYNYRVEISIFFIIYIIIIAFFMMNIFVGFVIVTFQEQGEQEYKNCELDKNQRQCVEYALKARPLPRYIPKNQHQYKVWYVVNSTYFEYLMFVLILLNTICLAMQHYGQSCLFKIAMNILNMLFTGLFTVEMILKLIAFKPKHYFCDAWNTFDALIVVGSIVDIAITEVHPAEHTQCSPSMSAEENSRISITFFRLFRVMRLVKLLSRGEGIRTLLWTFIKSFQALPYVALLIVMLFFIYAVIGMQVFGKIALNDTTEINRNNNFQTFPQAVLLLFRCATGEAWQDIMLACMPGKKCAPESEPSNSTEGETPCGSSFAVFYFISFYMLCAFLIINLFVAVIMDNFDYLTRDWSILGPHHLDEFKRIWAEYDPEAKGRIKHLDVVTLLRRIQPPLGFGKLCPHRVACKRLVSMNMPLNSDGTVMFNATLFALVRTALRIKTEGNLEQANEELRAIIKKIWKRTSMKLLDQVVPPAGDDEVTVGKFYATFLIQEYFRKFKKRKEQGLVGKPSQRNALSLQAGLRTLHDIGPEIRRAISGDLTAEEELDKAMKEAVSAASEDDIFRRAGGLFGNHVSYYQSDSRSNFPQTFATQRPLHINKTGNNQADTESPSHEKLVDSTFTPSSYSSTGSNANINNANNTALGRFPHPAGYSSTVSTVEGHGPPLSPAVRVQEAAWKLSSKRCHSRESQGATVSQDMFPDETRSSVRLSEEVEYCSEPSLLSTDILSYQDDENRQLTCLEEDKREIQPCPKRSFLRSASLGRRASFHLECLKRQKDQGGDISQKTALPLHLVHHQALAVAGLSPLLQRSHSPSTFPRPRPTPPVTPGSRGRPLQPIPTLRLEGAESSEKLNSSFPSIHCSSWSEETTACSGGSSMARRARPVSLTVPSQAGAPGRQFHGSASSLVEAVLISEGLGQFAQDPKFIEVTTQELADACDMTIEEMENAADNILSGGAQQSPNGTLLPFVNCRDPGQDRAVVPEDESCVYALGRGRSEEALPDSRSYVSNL
T2 sequence (P54290 25-944 partner limits assumed, other chains not shown): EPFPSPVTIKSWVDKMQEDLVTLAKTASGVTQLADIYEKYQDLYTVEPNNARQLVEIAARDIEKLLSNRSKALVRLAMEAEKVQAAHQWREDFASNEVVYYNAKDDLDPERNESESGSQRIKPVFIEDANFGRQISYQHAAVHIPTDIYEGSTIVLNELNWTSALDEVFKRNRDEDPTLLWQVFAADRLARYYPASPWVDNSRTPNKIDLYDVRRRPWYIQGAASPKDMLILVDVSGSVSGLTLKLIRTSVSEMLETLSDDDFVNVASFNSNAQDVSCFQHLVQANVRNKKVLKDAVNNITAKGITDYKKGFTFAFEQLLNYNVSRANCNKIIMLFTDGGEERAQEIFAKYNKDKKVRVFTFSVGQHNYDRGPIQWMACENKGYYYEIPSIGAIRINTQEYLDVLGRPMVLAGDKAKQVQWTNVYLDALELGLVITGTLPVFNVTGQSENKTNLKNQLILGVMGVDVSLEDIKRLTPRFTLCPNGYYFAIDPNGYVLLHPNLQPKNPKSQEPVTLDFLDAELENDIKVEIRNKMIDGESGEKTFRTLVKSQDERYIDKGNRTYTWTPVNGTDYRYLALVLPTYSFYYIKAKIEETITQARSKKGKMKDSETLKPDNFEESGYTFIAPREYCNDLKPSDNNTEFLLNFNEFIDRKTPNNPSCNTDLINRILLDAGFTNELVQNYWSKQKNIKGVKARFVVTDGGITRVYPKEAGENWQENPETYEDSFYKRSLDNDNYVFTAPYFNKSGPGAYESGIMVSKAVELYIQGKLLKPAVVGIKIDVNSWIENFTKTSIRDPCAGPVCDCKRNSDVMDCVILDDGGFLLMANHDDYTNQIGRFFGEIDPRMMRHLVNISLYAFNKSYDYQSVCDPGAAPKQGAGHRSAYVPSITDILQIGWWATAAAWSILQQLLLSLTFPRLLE
T2 sequence (P54290 945-1091 partner limits assumed, other chains not shown): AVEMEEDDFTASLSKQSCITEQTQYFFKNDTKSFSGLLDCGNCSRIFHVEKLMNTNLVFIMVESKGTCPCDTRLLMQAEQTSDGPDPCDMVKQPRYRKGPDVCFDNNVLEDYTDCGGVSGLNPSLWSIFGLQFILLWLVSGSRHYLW

SMILES	Ki [1, 4] [µM]	Ki (L-type calcium channel; [5]) [µM]	Ki [2, 6] [µM]	melting point	Ki [3, 7] [µM]	pKi [1, 8]	pKi [2, 9]	pKi [3, 10]	other results
CCC1=C(C(=O)O)C(c2ccc([N+](=O)[O-])cc2)C(C(=O)NCCCN2CCC(C(=O)OC)(c3ccccc3)CC2)=C(COCCN=[N+]=[N-])N1 (centres unmarked) [Example 227, 2-((2-Azidoethyl)oxy)methyl-6-ethyl-1,4-dihydro-3-(N-(3-(4-methoxycarbonyl-4-phenylpiperidin-1-yl)propyl))carbo xamido-4-(4-nitro)phenylpyridine-5-carboxylic Acid]	2.63	70.8	5.13	110 to 120 °C	0.0234				
CCC1=C(C(=O)OCCC#N)C(c2ccc([N+](=O)[O-])cc2)C(C(=O)NCCCN2CCC(c3ccccc3)CC2)=C(COC)N1 (centres unmarked) [Example 221, 5-(2-Cyanoethoxy) carbonyl-6-ethyl-1,4-dihydro-2-methyloxymethyl-4-(4-nitro)phenyl-3-(N-(3-(4-phenylpiperidin-1-yl)propyl))carboxamidopyridine]	0.0525	14.1	0.186	55 to 63 °C	0.00617				
CCC1=C(C(=O)OCCC#N)C(c2ccc([N+](=O)[O-])cc2)C(C(=O)NCCCN2CCC(C(=O)OC)(c3ccccc3)CC2)=C(COCCN=[N+]=[N-])N1 (centres unmarked) [Example 226, 2-((2-Azidoethyl)oxy) methyl-5-(2-cyanoethoxy) carbonyl-6-ethyl-1,4-dihydro-3-(N-(3-(4-methoxycarbonyl-4-phenylpiperidin-1-yl)propyl))carboxamido-4-(4-nitro)phenylpyridine]	0.0977	8.71	0.224	54 to 60 °C	0.011				
CCC1=C(C(=O)O)C(c2ccc([N+](=O)[O-])cc2)C(C(=O)NCCCN2CCC(c3ccccc3)(c3ccccc3)CC2)=C(COCCN)N1 (centres unmarked) [Example 219, 2-((2-Aminoethyl)oxy)methyl-6-ethyl-1,4-dihydro-4-(4-nitro)phenyl-3-(N-(3-(4,4-diphenylpiperidin-1-yl)propyl))carboxamidopyridine-5-carboxylic Acid]		575		180 °C (dec.)		5.91	5.57	7.52	
CCCC1=C(C(=O)NCC)C(c2ccc([N+](=O)[O-])cc2)C(C(=O)NCCCN2CCC(c3ccccc3)(c3ccccc3)CC2)=C(CCC)N1 (centres unmarked) [Example 159, 5-(N-Ethyl)carboxamido-1,4-dihydro-4-(4-nitrophenyl)-3-{N-[3-(4,4-diphenylpiperidin-1-yl)propyl]}carboxamido-2,6-dipropylpyridine]				123 to 128 °C					Ki ([1]; cloned human α1B receptor, LM(tk−) cell membranes, read-out: pKi alpha-1 1b (converted)): 0.178 µM; pKi (L-type calcium channel; pKi Ca): 5.78; pKi ([2]; pKi alpha-1 1a): 6.41; Ki ([3]; cloned human α1C receptor, LM(tk−) cell membranes, read-out: pKi alpha-1 1c (converted)): 0.00501 µM
CCC1=C(C(=O)O)C(c2ccc([N+](=O)[O-])cc2)C(C(=O)NCCCN2CCC(C#N)(c3ccccc3)CC2)=C(COC)N1 (centres unmarked) [Example 222, 3-(N-(3-(4-Cyano-4-phenylpiperidin-1-yl)propyl))carboxamido-6-ethyl-1,4-dihydro-2-methyloxymethyl-4-(4-nitro) phenylpyridine-5-carboxylic Acid]		282		115 °C (dec.)		5.17	4.85	7.38	
COC(=O)C1=C(C)NC(C)=C(C(=O)NCCCN2CCC(c3ccccc3)CC2)C1c1ccncc1 (centres unmarked) [Example 32, 1,4-Dihydro-3-methoxycarbonyl-2,6-dimethyl-5-(N-(3-(4-phenylpiperidin-1-yl)propyl)carboxamido)-4-(4-pyridyl)pyridine]				79 to 80 °C					Ki ([1]; cloned human receptor in LM(tk-) cell membranes, SEM and n in lines below, read-out: pKi alpha-1 1b (converted)): 0.302 µM; Ki (L-type calcium channel; rat cardiac muscle membranes, SEM and n in lines below, read-out: pKi Ca (converted)): 1.58 µM; Ki ([2]; [3H]prazosin, cloned human receptor in LM(tk-) cell membranes, SEM and n in lines below, read-out: pKi alpha-1 1a (converted)): 0.741 µM; Ki ([3]; cloned human receptor in LM(tk-) cell membranes, SEM and n in lines below, read-out: pKi alpha-1 1c (converted)): 0.0132 µM
CCC1=C(C(N)=O)C(c2ccc([N+](=O)[O-])cc2)C(C(=O)NCCCN2CCC(C(=O)OC)(c3ccccc3)CC2)=C(COCCN=[N+]=[N-])N1 (centres unmarked) [Example 231, 2-((2-Azidoethyl)oxy)methyl-5-carboxamido-6-ethyl-1,4-dihydro-3-(N-(3-(4-methoxycarbonyl-4-phenylpiperidin-1-yl)propyl))carboxamido-4-(4-nitro)phenylpyridine]	0.501	389	1.23	70 to 75 °C	0.00437				
CCCC1=C(C(=O)O)C(c2ccc([N+](=O)[O-])cc2)C(C(=O)NCCCN2CCC(c3ccccc3)(c3ccccc3)CC2)=C(CCC)N1 (centres unmarked) [Example 161, 1,4-Dihydro-4-(4-nitrophenyl)-5-{N-[3-(4,4-diphenylpiperidin-1-yl)propyl]}carboxamido-2,6-dipropylpyridine-3-carboxylic acid]				126 to 130 °C					pKi ([1]; pKi alpha-1 1b, cloned human α1B receptor, LM(tk−) cell membranes): 6.39; Ki (L-type calcium channel; rat cardiac muscle membrane fragments, L-type calcium channel, read-out: pKi Ca (converted)): 1000 µM; pKi ([2]; pKi alpha-1 1a, [3H]prazosin, cloned human α1A receptor, LM(tk−) cell membranes): 5.88; pKi ([3]; pKi alpha-1 1c, cloned human α1C receptor, LM(tk−) cell membranes): 7.41
COc1ccc(C2(c3ccccc3)CCN(CCCNC(=O)C3=C(COCCN=[N+]=[N-])NC(C)=C(C(N)=O)C3c3ccc([N+](=O)[O-])cc3)CC2)cc1 (centres unmarked) [Example 184, 2-[(2-Azidoethoxy)methyl]-5-carboxamido-1,4-dihydro-3-{N-[3-(4-(4-methoxyphenyl)-4-phenylpiperidin-1-yl)propyl]}carboxamido-6-methyl-4-(4-nitrophenyl)pyridine]		12.3		105 to 107 °C		6.76	6.13	8.02	
